Reference: patent US20060069132A1, “Azolecarboxamide herbicides” (priority 2004, published 2006)
Where two headings read alike, the source gives them in different places.

Columns and labels:
[1] = tested on: smallflower umbrella sedge; test: Test C flooded paddy test; type: in vivo, Cyperus difformis; details: Cyperus difformis
rice [2] = test: Test B pre-/postemergence herbicide test; type: in vivo, Oryza sativa; details: Oryza sativa, pre-emergence, 336 h, 0 = no effect, 100 = complete control
Procedure, shortened: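 Plants compared with untreated controls 13–15 days post-treatment and given a visual 0–100 injury score. Applications: preemergence to seeds; postemergence at 1- to 4-leaf (2–18 cm); paddy species flooded, 2-leaf stage. Vehicle non-phytotoxic, surfactant included.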

rice [3] = test: Test C flooded paddy test; type: in vivo, Oryza sativa; details: Oryza sativa
Procedure, shortened: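 Injury scored visually against controls on a 0 (no effect) to 100 (complete control) scale, 12 to 14 days after treatment in greenhouse. Flooded paddy plants treated at 2-leaf stage; postemergence plants at 1- to 4-leaf stage, 2 to 18 cm tall.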

goosegrass = test: Test C pre-/postemergence herbicide test; type: in vivo, Eleusine indica; details: Eleusine indica, pre-emergence, 312 h, read-out: Plant response rating, Goosegrass
Procedure, shortened: (§1)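 Visual injury scores run from 0 (no effect) to 100 (complete control), assessed relative to untreated controls 12 to 14 days after treatment in the greenhouse. Chemicals were formulated in a non-phytotoxic solvent mixture with surfactant and applied to soil after planting or to emerged plants at the 1- to 4-leaf stage.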

soybean = test: Test C pre-/postemergence herbicide test; type: in vivo, Glycine max; details: Glycine max, pre-emergence, read-out: Plant response rating, Soybean
Procedure, shortened: as §1

yellow nutsedge = test: Test C pre-/postemergence herbicide test; type: in vivo, Cyperus esculentus; details: Cyperus, pre-emergence, read-out: Plant response rating, Nutsedge, Yellow
Procedure, shortened: as §1

eastern black nightshade = test: Test C pre-/postemergence herbicide test; type: in vivo, Solanum ptycanthum; details: pre-emergence, read-out: Plant response rating, Nightshade
Procedure, shortened: as §1

morningglory = test: Test A pre-/postemergence herbicide test; type: in vivo, Ipomoea spp.; details: Ipomoea, 240 h; for pest or weed control at 500 g/ha: 500 g ai/ha; for pest or weed control at 2000 g/ha: 2000 g ai/ha
Procedure, shortened: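 Pre: seeded sandy loam, directed soil spray, compound in non-phytotoxic solvent + surfactant. Post: 1–2-leaf plants (2–10 cm), sprayed to runoff. Greenhouse ~10 d; visual injury vs untreated, 0–100 scale.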

[4] = 62 g ai/ha, preemergence, scale 0 to 100
[5] = 125 g ai/ha, scale 0 (no effect) to 100 (complete control), visual, 12 to 14 days
[6] = 500 g ai/ha, scale 0 to 100 (0 no effect, 100 complete control), visual, 12 to 14 days

In the case of `CCc1nn(C(C)(C)C)cc1C(=O)Nc1cc(C(=O)N(C)C)ccc1F` [Compound 222, N-[5-[(dimethylamino)carbonyl]-2-fluorophenyl]-1-(1,1-dimethylethyl)-3-ethyl-1H-pyrazole-4-carboxamide], the pest or weed control at 62 g/ha ([1]; 62 g ai/ha, scale 0 to 100 (0 no effect, 100 complete control), read-out: Sedge, Umbrella plant response rating) is reported as 65%, the pest or weed control at 125 g/ha ([1]; 125 g ai/ha, scale 0 to 100 (0 no effect, 100 complete control), read-out: Sedge, Umbrella plant response rating) is reported as 75% and the pest or weed control at 250 g/ha ([1]; 250 g ai/ha, scale of 0 to 100, 0 is no effect, 100 is complete control, read-out: Sedge, Umbrella plant response rating) is reported as 85%. The pest or weed control at 500 g/ha ([1]; 500 g ai/ha, visual rating after 12 to 14 days, scale 0 to 100 (0 no effect, 100 complete control), read-out: Plant response rating, Sedge, Umbrella) was 90%, the plant injury at 125 g/ha (rice [2]; 125 g ai/ha, read-out: Rice plant response rating (0 to 100 scale)) was 90% and the plant injury at 500 g/ha (rice [2]; 500 g ai/ha, visual rating, read-out: Plant response rating, Rice) was 100%. It also gave a plant injury at 62 g/ha (rice [3]; 62 g ai/ha, scale 0 to 100 (0 no effect, 100 complete control), read-out: Rice plant response rating) of 30%, a plant injury at 125 g/ha (rice [3]; 125 g ai/ha, scale 0 to 100 (0 no effect, 100 complete control), read-out: Rice plant response rating) of 70% and a plant injury at 250 g/ha (rice [3]; 250 g ai/ha, scale of 0 to 100, 0 is no effect, 100 is complete control, read-out: Rice plant response rating) of 85%. For the same molecule, the plant injury at 500 g/ha (rice [3]; 500 g ai/ha, visual rating after 12 to 14 days, scale 0 to 100 (0 no effect, 100 complete control), read-out: Plant response rating, Rice) was 85%, the pest or weed control at 62 g/ha (goosegrass; [4]) was 80% and the pest or weed control at 125 g/ha (goosegrass; [5]) was 100%. The pest or weed control at 250 g/ha (goosegrass; 250 g ai/ha, scale 0-100) was 100%, the pest or weed control at 500 g/ha (goosegrass; [6]) was 100% and the plant injury at 62 g/ha (soybean; [4]) was 40%. For the same molecule, the plant injury at 250 g/ha (soybean; 250 g ai/ha, scale 0-100) was 100%, the plant injury at 500 g/ha (soybean; [6]) was 100% and the pest or weed control at 62 g/ha (yellow nutsedge; [4]) was 0%. For the same molecule, the pest or weed control at 125 g/ha (yellow nutsedge; [5]) was 0%, the pest or weed control at 250 g/ha (yellow nutsedge; 250 g ai/ha, scale 0-100) was 20% and the pest or weed control at 500 g/ha (yellow nutsedge; [6]) was 60%. It also gave a pest or weed control at 62 g/ha (eastern black nightshade; [4]) of 85%, a pest or weed control at 125 g/ha (eastern black nightshade; [5]) of 100% and a pest or weed control at 250 g/ha (eastern black nightshade; 250 g ai/ha, scale 0-100) of 100%. It also gave a pest or weed control at 500 g/ha (eastern black nightshade; [6]) of 100%, a pest or weed control at 500 g/ha (morningglory; post-emergence, Postemergence, 0 to 100 scale, 0 no effect, 100 complete control, read-out: Morningglory plant response rating) of 80% and a pest or weed control at 2000 g/ha (morningglory; post-emergence, Postemergence, 0 to 100 scale, 0 no effect, 100 complete control, read-out: Plant response rating, Morningglory) of 95%. For the same molecule, the pest or weed control at 2000 g/ha (morningglory; pre-emergence, Preemergence, visual rating, 0 to 100 scale (0 no effect, 100 complete control), read-out: Morningglory plant response rating) was 100% and the pest or weed control at 500 g/ha (morningglory; pre-emergence, preemergence, visual injury, 0 to 100 scale (0 no effect, 100 complete control), read-out: Morningglory plant response rating) was 75%.
